Results as given in ChEMBL document CHEMBL5608184, “Discovery and mechanistic insights into thieno[3,2-d]pyrimidine and heterocyclic fused pyrimidines inhibitors targeting tubulin for cancer therapy” (Eur J Med Chem, 2024).
Calls of active or inactive are those of the source. The calls are words filed in the database; no cut-off is given here.

Assays:
SK-OV-3 [1] = test: Induction of apoptosis in human SK-OV-3 cells assessed as increase in cleaved caspase-9 level incubated for 48 hrs by Western blot analysis; type: functional, cell-based; conditions: dose 0.625-5 nM
SK-OV-3 [2] = test: Induction of apoptosis in human SK-OV-3 cells assessed as increase in cleaved caspase-3 level incubated for 48 hrs by Western blot analysis; type: functional, cell-based; conditions: dose 0.625-5 nM
SK-OV-3 [3] = test: Antiproliferative activity against human SK-OV-3 cells incubated for 48 hrs by CCK8 assay; type: functional, cell-based; conditions: SK-OV-3, 48 h
SK-OV-3 [4] = test: Induction of apoptosis in human SK-OV-3 cells assessed as decrease in Bcl-2 level incubated for 48 hrs by Western blot analysis; type: functional, cell-based; conditions: dose 0.625-5 nM
SK-OV-3 [5] = test: Inhibition of colony formation in human SK-OV-3 cells incubated for 3 days by crystal violet staining based analysis; type: functional, cell-based; conditions: dose 0.625-5 nM, time 3.0 day
SK-OV-3 [6] = test: Inhibition of cell migration in human SK-OV-3 cells assessed as relative wound density at 5 nM incubated for 24 hrs by wound healing assay (reference value: 74.53 %); type: functional; design: scale not given: the % may be the effect or the level left
SK-OV-3 [7] = test: Induction of cell cycle arrest at G2/M phase in human SK-OV-3 cells assessed as decrease in Cdc-25c level incubated for 24 hrs by Western blot analysis; type: functional, cell-based; conditions: dose 0.625-5 nM
SK-OV-3 [8] = test: Induction of cell cycle arrest at G2/M phase in human SK-OV-3 cells at 2.5 nM incubated for 24 hrs by PI staining based flow cytometry (reference value: 29.73 %); type: functional
SK-OV-3 [9] = test: Induction of apoptosis in human SK-OV-3 cells assessed as late apoptotic cells at 2.5 nM incubated for 48 hrs by Annexin V-APC-A/7-AAD-A staining based flow cytometry (reference value: 1.22 %); type: functional
HCC827 = test: Antiproliferative activity against human HCC827 cells incubated for 48 hrs by CCK8 assay; type: functional, cell-based; conditions: HCC827, 48 h
SK-OV-3 [10] = test: Inhibition of cell migration in human SK-OV-3 cells assessed as relative wound density at 0.625 nM incubated for 24 hrs by wound healing assay (reference value: 74.53 %); type: functional; design: scale not given: the % may be the effect or the level left
SK-OV-3 [11] = test: Inhibition of cell migration in human SK-OV-3 cells assessed as migration rate at 0.625 nM incubated for 24 hrs by wound healing assay relative to control; type: functional; design: scale not given: the % may be the effect or the level left
SK-OV-3 [12] = test: Induction of cell cycle arrest at G2/M phase in human SK-OV-3 cells assessed as increase in Cyclin B level incubated for 24 hrs by Western blot analysis; type: functional, cell-based; conditions: dose 0.625-5 nM
SK-OV-3 [13] = test: Inhibition of cell migration in human SK-OV-3 cells assessed as migration rate at 2.5 nM incubated for 24 hrs by wound healing assay relative to control; type: functional; design: scale not given: the % may be the effect or the level left
[14] = Antiproliferative activity against Paclitaxel-resistant human A2780 cells incubated for 48 hrs by CCK8 assay; type: functional, cell-based; conditions: Paclitaxel-resistant A2780, 48 h
Tubulin (Homo sapiens) [15] = target: T1, Tubulin (Homo sapiens) (UniProt P68371+Q9H4B7+P0DPH7+P68366+Q13509+Q71U36+P04350+Q3ZCM7+P07437+P68363+Q9BQE3+Q6PEY2+Q13885+Q9BVA1+Q9BUF5); test: Inhibition of tubulin polymerization in human SK-OV-3 assessed as disruption of microtubule cytoskeleton at 2 nM incubated for 24 hrs by immunofluorescence based analysis; type: cell-based
SK-OV-3 [16] = test: Induction of apoptosis in human SK-OV-3 cells assessed as necrotic cells at 5 nM incubated for 48 hrs by Annexin V-APC-A/7-AAD-A staining based flow cytometry (reference value: 0.48 %); type: functional
Sus scrofa = species: Sus scrofa; test: Inhibition of porcine brain tubulin polymerization measured for 60 min by fluorescence based assay; conditions: dose 10.0 µM
SK-OV-3 [17] = test: Induction of apoptosis in human SK-OV-3 cells assessed as late apoptotic cells at 5 nM incubated for 48 hrs by Annexin V-APC-A/7-AAD-A staining based flow cytometry (reference value: 1.22 %); type: functional
SK-OV-3 [18] = test: Induction of apoptosis in human SK-OV-3 cells assessed as early apoptotic cells at 1.25 nM incubated for 48 hrs by Annexin V-APC-A/7-AAD-A staining based flow cytometry (reference value: 1.12 %); type: functional
SK-OV-3 [19] = test: Inhibition of cell migration in human SK-OV-3 cells assessed as migration rate at 1.25 nM incubated for 24 hrs by wound healing assay relative to control; type: functional; design: scale not given: the % may be the effect or the level left
Tubulin (Homo sapiens) [20] = target: T1, Tubulin (Homo sapiens); test: Inhibition of tubulin polymerization in human SK-OV-3 assessed as severe cell contraction at 2 nM incubated for 24 hrs by immunofluorescence based analysis
A549 = test: cells; conditions: Homo sapiens, A549, 48 h
Description: Antiproliferative activity against human A549 cells incubated for 48 hrs by CCK8 assay

SK-OV-3 [21] = test: Inhibition of cell migration in human SK-OV-3 cells assessed as migration rate at 5 nM incubated for 24 hrs by wound healing assay relative to control; type: functional; design: scale not given: the % may be the effect or the level left
SK-OV-3 [22] = test: Induction of apoptosis in human SK-OV-3 cells assessed as necrotic cells at 2.5 nM incubated for 48 hrs by Annexin V-APC-A/7-AAD-A staining based flow cytometry (reference value: 0.48 %); type: functional
Tubulin (Homo sapiens) [23] = target: T1, Tubulin (Homo sapiens); test: Inhibition of tubulin polymerization in human SK-OV-3 assessed as decrease in cell viability at 2 nM incubated for 24 hrs by immunofluorescence based analysis
A2780 = test: Antiproliferative activity against human A2780 cells incubated for 48 hrs by CCK8 assay; type: functional, cell-based; conditions: A2780, 48 h
SK-OV-3 [24] = test: Induction of apoptosis in human SK-OV-3 cells assessed as increase in cleaved PARP level incubated for 48 hrs by Western blot analysis; type: functional, cell-based; conditions: dose 0.625-5 nM
Tubulin (Homo sapiens) [25] = target: T1, Tubulin (Homo sapiens); test: Inhibition of tubulin polymerization in human SK-OV-3 assessed as condensation of microtubule at cell periphery at 2 nM incubated for 24 hrs by immunofluorescence based analysis
SK-OV-3 [26] = test: Induction of cell cycle arrest at G2/M phase in human SK-OV-3 cells at 5 nM incubated for 24 hrs by PI staining based flow cytometry (reference value: 29.73 %); type: functional
SK-OV-3 [27] = test: Induction of apoptosis in human SK-OV-3 cells assessed as necrotic cells at 5 nM incubated for 48 hrs by Annexin V-APC-A/7-AAD-A staining based flow cytometry (reference value: 0.21 %); type: functional
SK-OV-3 [28] = test: Induction of apoptosis in human SK-OV-3 cells assessed as late apoptotic cells at 1.25 nM incubated for 48 hrs by Annexin V-APC-A/7-AAD-A staining based flow cytometry (reference value: 1.20 %); type: functional
SK-OV-3 [29] = test: Induction of apoptosis in human SK-OV-3 cells assessed as early apoptotic cells at 5 nM incubated for 48 hrs by Annexin V-APC-A/7-AAD-A staining based flow cytometry (reference value: 1.10 %); type: functional
SK-OV-3 [30] = test: Induction of cell cycle arrest at G2/M phase in human SK-OV-3 cells at 1.25 nM incubated for 24 hrs by PI staining based flow cytometry (reference value: 30.13 %); type: functional
SK-OV-3 [31] = test: Induction of apoptosis in human SK-OV-3 cells assessed as viable cells at 2.5 nM incubated for 48 hrs by Annexin V-APC-A/7-AAD-A staining based flow cytometry (reference value: 97.50 %); type: functional; conditions: read-out: Activity
SK-OV-3 [32] = test: Induction of apoptosis in human SK-OV-3 cells assessed as necrotic cells at 2.5 nM incubated for 48 hrs by Annexin V-APC-A/7-AAD-A staining based flow cytometry (reference value: 0.21 %); type: functional

SMILES	Activity (SK-OV-3 [1])	Activity (SK-OV-3 [2])	IC50 (SK-OV-3 [3]) [nM]	Activity (SK-OV-3 [4])	inhibition (SK-OV-3 [5])	Activity (SK-OV-3 [7])	IC50 (HCC827) [nM]	Activity (SK-OV-3 [11]) [%]	Activity (SK-OV-3 [12])	Activity (SK-OV-3 [13]) [%]	IC50 [14] [nM]	inhibition (Tubulin (Homo sapiens) [15])	inhibition (Sus scrofa)	Activity (SK-OV-3 [19]) [%]	inhibition (Tubulin (Homo sapiens) [20])	IC50 (A549) [nM]	Activity (SK-OV-3 [21]) [%]	inhibition (Tubulin (Homo sapiens) [23])	IC50 (A2780) [nM]	Activity (SK-OV-3 [24])	further results
COc1ccc2c(c1)NC(=O)CN2c1nc(Cl)nc2ccsc12	Dose-Dependent Effect	Dose-Dependent Effect	0.31	Dose-Dependent Effect	Dose-Dependent Effect	Active	0.34	84.28	Active	50.2	0.75	Active	Dose-Dependent Effect	70.73	Active	0.84	23.64	Active	0.38	Dose-Dependent Effect	Activity (SK-OV-3 [6]): 7.98%; Activity (SK-OV-3 [8]): 88.2%; Activity (SK-OV-3 [9]): 4.71%; Activity (SK-OV-3 [10]): 67.94%; Activity (SK-OV-3 [16]): 2.06%; Activity (SK-OV-3 [17]): 4.63%; Activity (SK-OV-3 [18]): 38.42%; Activity (SK-OV-3 [22]): 2.32%; inhibition (Tubulin (Homo sapiens) [25]): Active; Activity (SK-OV-3 [26]): 88.67%
COc1ccc(N(C)c2nc(Cl)nc3ccn(C)c23)cc1	Dose-Dependent Effect	Dose-Dependent Effect	1.32	Dose-Dependent Effect	Dose-Dependent Effect	Active	1.74	102.55	Active	81.73	2.26	Active	Dose-Dependent Effect	94.75	Active	1.76	56.82	Active	1.56	Dose-Dependent Effect	Activity (SK-OV-3 [27]): 2.25%; Activity (SK-OV-3 [28]): 2.48%; Activity (SK-OV-3 [29]): 39.84%; Activity (SK-OV-3 [30]): 34.62%; viability at 0.0025 µM (SK-OV-3 [31]): 75.9%; Activity (SK-OV-3 [32]): 1.17%; inhibition (Tubulin (Homo sapiens) [25]): Active
